Data set [1] addresses Replicase polyprotein 1ab (Severe acute respiratory syndrome coronavirus 2) (UniProt P0DTD1). As to the kind of experiment: Inhibition of SARS CoV-2 main protease at 10 uM relative to control.
The target of data set [2] is Replicase polyprotein 1ab (Severe acute respiratory syndrome coronavirus 2, UniProt P0DTD1). Put plainly: (§1) Inhibition of SARS CoV-2 main protease.
The nature of data set [3]: Cytotoxicity against HEK293-A cells assessed as reduction in cell viability by CCK-8 assay. Particulars: human. The data set is classed as toxicity, cell-based.
The target of data set [4] is Replicase polyprotein 1ab (Severe acute respiratory syndrome coronavirus 2) (UniProt P0DTD1). Put plainly: Inhibition of SARS CoV-2 main protease at 50 uM relative to control.
Data set [5] has the same target. Described as §1.
Data set [6] concerns SARS-CoV-2. Put plainly: Antiviral activity against wild type SARS-CoV-2 infected in Vero E6 cells assessed as inhibition of viral induced cytopathic effect incubated for 72 hrs by MTT assay. The data set is classed as functional, organism-based. Particulars: Severe acute respiratory syndrome coronavirus 2, Vero C1008, 72 h.
Data set [7] relates to SARS-CoV-2. Put plainly: Antiviral activity against SARS-CoV-2. Particulars: Severe acute respiratory syndrome coronavirus 2. The data set is classed as functional, organism-based.

SMILES strings stand for the structures.

We go through 41 molecules from ChEMBL document CHEMBL5579788 (Bioorg Med Chem Lett, 2024).

In the case of `O=C(Nc1ccccc1)C1c2cccc[n+]2CC(=O)N1c1ccccc1` (centres undefined), in data set [1], the inhibition came to 84.3%. This molecule also gave an IC50 in data set [2] of 5.2 µM.

For `O=C(Nc1ccccc1)C1c2cccc[n+]2CC(=O)N1c1ccc(Br)cc1` (centres undefined), the inhibition in data set [1] was determined as 71.3%. Also, the IC50 in data set [2] was found to be 8.6 µM. Regarding `Cc1ccc(N2C(=O)C[n+]3ccccc3C2C(=O)Nc2ccccc2C)cc1` (centres undefined), the inhibition in data set [1] came out at 83%. Moreover, the IC50 in data set [2] came to 6.1 µM. As for `CCOc1ccc(NC(=O)C2c3cccc[n+]3CC(=O)N2c2ccccc2)cc1` (centres undefined), in data set [1], the inhibition was determined as 80.4%. The same molecule registered an IC50 in data set [2] of 5 µM. For the molecule `COc1ccc(NC(=O)C2c3cccc[n+]3CC(=O)N2c2ccccc2O)cc1` (centres undefined), the inhibition in data set [1] worked out at 26.5%. Regarding `Cc1ccccc1N1C(=O)C[n+]2ccccc2C1C(=O)Nc1ccccc1` (centres undefined), the inhibition in data set [1] was found to be 78.7%. The molecule also registered a concentration for half-maximal inhibition (IC50) in data set [2] of 5.6 µM. On to `Cc1cc(C)cc(N2C(=O)C[n+]3ccccc3C2C(=O)Nc2ccc(Cl)cc2)c1` (centres undefined), for which the inhibition in data set [1] came to 75.7%. This molecule also returned an IC50 in data set [2] of 8.8 µM. For the molecule `CCN1C(=O)C[n+]2ccccc2C1C(=O)Nc1c(C)cccc1C` (centres undefined), the inhibition in data set [1] was less than 20%. Consider `COc1ccccc1N1C(=O)C[n+]2ccccc2C1C(=O)Nc1c(C)cccc1C` (centres undefined), for which the inhibition in data set [1] was less than 20%. Take `O=C(Nc1ccc(Cl)cc1)C1c2cccc[n+]2CC(=O)N1c1cccc(Cl)c1` (centres undefined): in data set [1], the inhibition is 84.5%. In addition, the IC50 in data set [2] is 5.1 µM. As to `Cc1cccc(C)c1NC(=O)C1c2cccc[n+]2CC(=O)N1C` (centres undefined), the inhibition in data set [1] was found to be 85.8%. In data set [2], this molecule came in with a concentration for half-maximal inhibition (IC50) of 8.3 µM. `CCOc1ccc(NC(=O)C2c3cccc[n+]3CC(=O)N2c2ccc(OCC)cc2)cc1` (centres undefined) displayed an inhibition in data set [1] of 21.7%.

As to `Cc1ccc(N2C(=O)C[n+]3ccccc3C2C(=O)Nc2ccc(Cl)cc2)cc1Br` (centres undefined), the inhibition in data set [1] worked out at 78.2%. For the same molecule, in data set [3], the CC50 is more than 300 µM. This molecule displayed an IC50 in data set [2] of 4.5 µM.

Regarding `O=C(Nc1ccc(Cl)cc1)C1c2cccc[n+]2CC(=O)N1Cc1ccc2c(c1)OCO2` (centres undefined), the inhibition in data set [1] worked out at 72.5%. In data set [3], the CC50 was more than 300 µM. This molecule also returned a concentration for half-maximal inhibition (IC50) in data set [2] of 6.9 µM. For `CCOc1ccc(NC(=O)C2c3cccc[n+]3CC(=O)N2c2ccc(OC)cc2)cc1` (centres undefined), the inhibition in data set [1] was determined as 30%. Regarding `Cc1cc(C)cc(N2C(=O)C[n+]3ccccc3C2C(=O)Nc2ccccc2C)c1` (centres undefined), the inhibition in data set [1] worked out at 66.6%. For `Cc1cccc(C)c1NC(=O)C1c2cccc[n+]2CC(=O)N1c1ccc(Cl)cc1` (centres undefined), the inhibition in data set [1] is 50.1%.

For the molecule `Cc1cccc(C)c1NC(=O)C1c2cccc[n+]2CC(=O)N1c1cccc(Cl)c1` (centres undefined), in data set [1], the inhibition was 31%. In the case of `CCc1cccc(C)c1N1C(=O)C[n+]2ccccc2C1C(=O)Nc1ccccc1C` (centres undefined), the inhibition in data set [1] is less than 20%.

In data set [1], `C=CCN1C(=O)C[n+]2ccccc2C1C(=O)Nc1c(C)cccc1C` (centres undefined) had an inhibition of less than 20%. In data set [1], `O=C(Nc1ccc(Cl)cc1)C1c2cccc[n+]2CC(=O)N1c1ccc(Br)cc1` (centres undefined) showed an inhibition of 82.2%. In data set [2], this molecule yielded an IC50 of 8.5 µM.

On to `Cc1ccccc1NC(=O)C1c2cccc[n+]2CC(=O)N1c1c(C)cccc1C` (centres undefined), for which the inhibition in data set [1] was less than 20%. Consider `Cc1cccc(N2C(=O)C[n+]3ccccc3C2C(=O)Nc2ccccc2)c1` (centres undefined), for which the inhibition is 80.5% in data set [1], more than 50% in data set [4] and “Dose-Dependent Effect” in data set [5]. Further, the IC50 in data set [2] is 6.1 µM. `CCOc1ccc(N2C(=O)C[n+]3ccccc3C2C(=O)Nc2ccc(Cl)cc2)cc1` (centres undefined): the inhibition in data set [1] was found to be 47.2%.

Turning to `O=C(NC1CCCC1)C(=O)[C@H](CC1CCNC1=O)NC(=O)[C@@H]1[C@H]2CCC[C@H]2CN1C(=O)[C@@H](NC(=O)C(F)(F)F)C1CCCCC1` (some centres undefined), the EC50 in the data set with SARS-CoV-2 [6] amounted to 0.095 µM. Molecule `Cc1ccccc1NC(=O)C1c2cccc[n+]2CC(=O)N1C` (centres undefined) displayed an inhibition in data set [1] of 75.3%. Moreover, the CC50 in data set [3] is more than 300 µM. The molecule further returned an IC50 in data set [2] of 4 µM. As for `CN1C(=O)C[n+]2ccccc2C1C(=O)Nc1ccccc1` (centres undefined), the inhibition in data set [1] was found to be 93.3%. The IC50 in data set [2] amounted to 8.9 µM.

Molecule `Cc1cccc(C)c1NC(=O)C1c2cccc[n+]2CC(=O)N1Cc1ccc2c(c1)OCO2` (centres undefined) displayed an inhibition in data set [1] of less than 20%. The molecule `O=C[C@H](C[C@@H]1CCNC1=O)NC(=O)[C@H](Cc1cccc(F)c1)NC(=O)c1cc2ccccc2[nH]1` gave an EC50 in the data set with SARS-CoV-2 [7] of 0.72 µM.

The molecule `Cc1ccc(N2C(=O)C[n+]3ccccc3C2(C)C(=O)Nc2ccc(Cl)cc2)cc1` (centres undefined) gave an inhibition in data set [1] of less than 20%. `CC(C)(C)C(=O)N[C@H](C(=O)N1CC2(C[C@H]1C(=O)N[C@H](C#N)C[C@@H]1CCNC1=O)SCCS2)C(C)(C)C` registered an EC50 in the data set on SARS-CoV-2 [7] of 0.57 µM. In data set [2], this molecule showed an IC50 of 0.022 µM. As to `Cc1cccc(C)c1NC(=O)C1(C)c2cccc[n+]2CC(=O)N1c1ccc(Cl)cc1` (centres undefined), the inhibition in data set [1] is 32.1%. Molecule `CC1(C(=O)Nc2ccc(Cl)cc2)c2cccc[n+]2CC(=O)N1c1ccc(Cl)cc1` (centres undefined) displayed an inhibition in data set [1] of less than 20%. Still for that read-out and setting: the result for `CCCN1C(=O)C[n+]2ccccc2C1C(=O)Nc1c(C)cccc1C` (centres undefined) reads less than 20%.

`COc1ccc(N2C(=O)C[n+]3ccccc3C2C(=O)Nc2ccc(Cl)cc2)cc1` (centres undefined): in data set [1], the inhibition was determined as 57.7%. `Cc1ccc(N2C(=O)C[n+]3ccccc3C2C(=O)Nc2c(C)cccc2C)cc1Cl` (centres undefined): the inhibition in data set [1] was less than 20%. Consider `Cc1cccc(C)c1NC(=O)C1c2cccc[n+]2CC(=O)N1CCO` (centres undefined), for which the inhibition in data set [1] was less than 20%. As for `Cc1cccc(C)c1NC(=O)C1c2cccc[n+]2CC(=O)N1c1cccc(C(F)(F)F)c1` (centres undefined), the inhibition in data set [1] was less than 20%. For `Cc1cccc(C)c1NC(=O)C1c2cccc[n+]2CC(=O)N1c1ccc2c(c1)OCO2` (centres undefined), the inhibition in data set [1] is less than 20%. As for `O=C1C2C3C=CC(CO)(O3)C2C(=O)N1c1cc(C(F)(F)F)ccc1Cl` (centres undefined), the inhibition is more than 50% in data set [4] and “Dose-Dependent Effect” in data set [5]. For the same molecule, the IC50 in data set [2] stood at 4.4 µM. `O=C(Nc1ccc(Cl)cc1)C1c2cccc[n+]2CC(=O)N1c1ccc(Cl)cc1` (centres undefined) returned an inhibition in data set [1] of 75.7%. This molecule had an IC50 in data set [2] of 9.6 µM.
